Source: paper PMC7806714, “Statins for the prevention of proliferative vitreoretinopathy: cellular responses in cultured cells and clinical statin concentrations in the vitreous” (Scientific Reports, 2021)

Experiments:
[1] = UPLC-MS/MS statin and metabolite concentrations in vitreous of vitrectomy patients on oral statins; type: in vivo, human
Description: The study was conducted according to the tenets of the Declaration of Helsinki, and was approved by the Institutional Review Board and Ethical committee of Helsinki University Central Hospital. Twenty patients were enrolled; fifteen with per oral statin treatment and five controls. Signed informed consent was obtained from each participant prior to the vitreous sampling. Confidentiality of the patient records was maintained when the clinical data were entered into a computer-based standardized data entry for analysis. Sixteen patients were being operated due to PDR; of these, five patients had also Tractional Retinal Detachment (TRD); two patients were operated due to RRD, one due to age-related epiretinal fibrosis (pucker), and one due to a macular hole (Supplementary Table S2). […] All vitrectomies were performed by the recruiting vitreoretinal surgeon (SL). […] The samples were collected by manual aspiration into a syringe via the vitrectomy with the cutting function activated. Sample aliquots were transferred into sterile 1.5 mL microcentrifuge tubes (Freemont, CA, USA) and immediately frozen and stored at − 70 °C until laboratory analysis. […] All reference compounds and internal standards were purchased from Toronto Research Chemicals (Toronto, Canada). Samples (100 µl) were divided into two aliquots and kept at − 80 °C prior to analysis. […] Homogenizer blocks were pre-cooled by placing them at − 20 °C. […] Supernatants (120 µl) were pipetted into analytical vials and the concentrations of the statins were measured with Ultra-high Pressure Liquid Chromatography—tandem Mass Spectrometry (UPLC-MS/MS) technique. The same pre-treatment protocol was used to prepare calibration curves and quality control samples but homogenized and filtered porcine vitreous were used as a matrix instead of human vitreous. A minimum of six calibration curve concentrations was used for quantitation of the compounds. Two parallel calibration curve sets included all eleven analytes and four deuterated internal standards. Three quality control samples in three parallel sets were used to validate the method. The linear range varied from approximately 0.004 to 10 ng/mL depending on the analyte. Limit of quantitation was set to the smallest calibration curve point of each drug. Each sample was analysed twice and the average of these values was designated as the concentration of the sample. […] For rosuvastatin, two metabolites were analysed: rosuvastatin lactone and N-desmethyl rosuvastatin lactone. Rosuvastatin D6 was used as an internal standard. The parent drug, its metabolites and internal standard were analysed from the same sample in each case. Liquid chromatography separation was carried out using a Waters Acquity UPLC instrument (Waters, MA, USA) coupled with Waters HSS T3 C18 (2.1 × 100 mm, 1.8 µm) column at 40 °C. The mobile phase consisted of 0.1% formic acid in ultrapure water (A) and 100% of LC–MS grade acetonitrile (B). […] The flow rate was set to 0.3 mL/min and injection volume 1.5 µl. After every three samples, a solvent blank was run to control for any carry over. Mass spectrometry measurements were carried out using a Waters Xevo Triple Quadruple mass spectrometer (TQ-S) equipped with an ESI source. […] The source parameters were as follows: Capillary voltage 2.8 kV, source temperature 150 °C and desolvation temperature 500 °C. Nitrogen (Aga, Helsinki, Finland) was used as a desolvation gas (800 l/h), a cone gas (150 l/h) and a nebulizer gas (7 bar). Argon (Aga, Helsinki, Finland) was used as a collision gas (0.15 mL/min). The Multiple Reaction Monitoring (MRM) mode was used for quantification. Precursor and fragment ions, as well as other optimized parameters are listed in Supplementary Table S3.

[2] = Calculated average steady-state plasma (Eq. 1) and expected vitreal concentrations (Eq. 3); set-up: species or system human; conditions: for Calc. Cv: expected vitreal, Eq. 3; for Css,av: plasma, Eq. 1
Description: The concentrations of statins and their metabolites in the vitreous were analysed (see above) and expressed as ng/mL concentrations. These concentrations were compared to published statin concentrations in plasma. […] Maximum concentrations in plasma and the area under the concentration vs time curve values were collected. The expected average statin concentrations in plasma during multiple dose treatment were calculated for the doses that the patients received in our study (Eq. 1):1 Css,av=AUCsingledose/τ where τ is the time interval between doses. The drug concentrations in plasma (C, Cmax, Css, av) include both unbound (Cu) and protein-bound drug. The values for protein binding were obtained from the summary of drug product characteristics for each statin. The free fraction of statin in plasma was calculated based on Eq. (2):2 fu=CuC
The expected drug concentrations in the patients’ vitreous samples were calculated according to Eq. (3)3 Cv=fu×Css,av
Equation (3) assumes that the vitreal drug concentrations equilibrate with the unbound drug concentrations in plasma, because only free drug is expected to cross the blood-ocular barriers.

[3] = tested on: IL-8; experiment: ELISA of LPS-induced IL-8 release from ARPE-19 cells; conditions: 24 h prior to LPS
[4] = tested on: IL-6; experiment: ELISA of LPS-induced IL-6 release from ARPE-19 cells; conditions: then LPS
[5] = tested on: MCP-1; experiment: ELISA of LPS-induced MCP-1 release from ARPE-19 cells; conditions: 24 h prior to LPS
[6] = tested on: ARPE-19 cells; experiment: LDH release assay (cell membrane integrity); type: cell-based, human; conditions: with and without LPS; Supplementary Fig. S3
Description: Cell viability was assessed by determining the amount of LDH enzyme from culture media using a commercial kit (Promega Corporation, USA) according to the manufacturer’s protocol. This assay provides information about the integrity of the plasma membranes of the cells (high LDH levels meaning cell damage). In addition, the cell viability was examined with MTT assay, as described previously. In viable cells, the mitochondrial succinate dehydrogenase enzyme can metabolize the MTT dye into formazan that absorbs light at the 550 nm wavelength.

[7] = tested on: PVR rabbit model; experiment: Preclinical PVR rabbit model with intravitreal simvastatin (Kawahara et al.); type: in vivo; conditions: Eq. 5; intravitreal dose 0.63 µg, dosing interval 48 h, rabbit CLivt 0.982 mL/h; study data of [16]
[8] = free fraction of drug in plasma; ref summary of product characteristics document; cited from earlier work
[9] = tested on: PVR rabbit model; set-up: method as in PMID 18599521; conditions: four intravitreal injections of 15 µM at intervals of two days; end point 28 days; ref [16]; cited from earlier work
[10] = patient 352, PDR, TDR, oral atorvastatin 20 mg
[11] = patient 355, PDR, oral atorvastatin 10 mg
[12] = patient 368, PDR, oral atorvastatin 40 mg
[13] = patient 429, RRD, oral atorvastatin 20 mg
[14] = patient 430, PDR, oral atorvastatin 20 mg
[15] = patient 397, PDR, oral rosuvastatin 20 mg
[16] = patient 412, PDR, oral rosuvastatin 20 mg
[17] = patient 347, PDR, TDR, oral simvastatin 40 mg
[18] = patient 370, PDR, oral simvastatin 40 mg
[19] = patient A101, PDR, TDR, oral simvastatin 40 mg
[20] = oral 40 mg/d, patients' vitreous

## CC(C)c1c(C(=O)Nc2ccccc2O)c(-c2ccccc2)c(-c2ccc(F)cc2)n1CCC1CC(O)CC(=O)O1 (stereo not shown) [2-OH Atv lactone, 2-OH atorvastatin lactone]
[1]; [10]
  Concentration in vitreous sample: 0.023 ng/mL
[1]; [11]
  Concentration in vitreous sample: 0.029 ng/mL
[1]; [12]
  Concentration in vitreous sample: 0.063 ng/mL
[1]; [13]
  Concentration in vitreous sample: 0.023 ng/mL
[1]; [14]
  Concentration in vitreous sample: 0.032 ng/mL

## CC(C)c1c(C(=O)Nc2ccccc2O)c(-c2ccccc2)c(-c2ccc(F)cc2)n1CCC(O)CC(O)CC(=O)O (stereo not shown) [2-OH Atv, 2-OH atorvastatin]
[1]; [10]
  Concentration in vitreous sample: 0.047 ng/mL
[1]; [11]
  Concentration in vitreous sample: 0.071 ng/mL
[1]; [12]
  Concentration in vitreous sample: 0.176 ng/mL
[1]; [14]
  Concentration in vitreous sample: 0.099 ng/mL

## CC(C)c1c(C(=O)Nc2ccc(O)cc2)c(-c2ccccc2)c(-c2ccc(F)cc2)n1CCC1CC(O)CC(=O)O1 (stereo not shown) [4-OH Atv lactone, 4-OH atorvastatin lactone]
[1]; [11]
  Concentration in vitreous sample: 0.012 ng/mL
[1]; [12]
  Concentration in vitreous sample: 0.039 ng/mL
[1]; [13]
  Concentration in vitreous sample: 0.008 ng/mL
[1]; [14]
  Concentration in vitreous sample: 0.017 ng/mL

## CC(C)c1c(C(=O)Nc2ccc(O)cc2)c(-c2ccccc2)c(-c2ccc(F)cc2)n1CC[C@@H](O)C[C@@H](O)CC(=O)O [4-OH Atv, 4-OH atorvastatin]
[1]; [10]
  Concentration in vitreous sample: 0.022 ng/mL
[1]; [11]
  Concentration in vitreous sample: 0.057 ng/mL
[1]; [12]
  Concentration in vitreous sample: 0.209 ng/mL
[1]; [13]
  Concentration in vitreous sample: 0.022 ng/mL
[1]; [14]
  Concentration in vitreous sample: 0.12 ng/mL

## CC(C)c1c(C(=O)Nc2ccccc2)c(-c2ccccc2)c(-c2ccc(F)cc2)n1CC[C@@H](O)C[C@@H](O)CC(=O)O [Atorvastatin]
[2]; 10 mg/d, India study [22]
  Calc. Cv: 0.046 ng/mL
[2]; 10 mg/d, Jordan study [21]
  Calc. Cv: 0.024 ng/mL
  Css,av: 0.49 ng/mL
[2]; 10 mg/d, Turkey study [23]
  Calc. Cv: 0.098 ng/mL
[2]; 20 mg/d, China study [25]
  Calc. Cv: 0.037 ng/mL
  Css,av: 1.85 ng/mL
[2]; 20 mg/d, UK study [26]
  Calc. Cv: 0.153 ng/mL
  Css,av: 7.63 ng/mL
[2]; 20 mg/d, USA study [24]
  Calc. Cv: 0.049 ng/mL
[2]; 40 mg/d, Finland study [28]
  Calc. Cv: 0.045 ng/mL
  Css,av: 2.26 ng/mL
[2]; 40 mg/d, Finland study [29]
  Calc. Cv: 0.051 ng/mL
  Css,av: 2.56 ng/mL
[2]; 40 mg/d, USA study [27]
  Calc. Cv: 0.082 ng/mL
  Css,av: 4.11 ng/mL
[3]; 5 µM
  LPS-induced release of IL-8: reduced
[3]; 10 µM
  LPS-induced release of IL-8: reduced
[4]; 5 µM pre-treatment for 24 h
  times lower secretion of IL-6 compared to the solvent control: 1.5 times
[4]; 10 µM pre-treatment for 24 h
  times lower secretion of IL-6 compared to the solvent control: 1.6 times
[5]; 5 µM
  LPS-induced release of MCP-1: reduced
[5]; 10 µM
  LPS-induced release of MCP-1: reduced
[6]
  Tolerance by ARPE-19 cells (LDH and MTT): well tolerated

## CC(C)c1c(C(=O)Nc2ccccc2)c(-c2ccccc2)c(-c2ccc(F)cc2)n1CC[C@@H]1C[C@@H](O)CC(=O)O1 [Atv lactone, atorvastatin lactone]
[1]; [10]
  Concentration in vitreous sample: 0.012 ng/mL
[1]; [11]
  Concentration in vitreous sample: 0.035 ng/mL
[1]; [12]
  Concentration in vitreous sample: 0.089 ng/mL
[1]; [13]
  Concentration in vitreous sample: 0.016 ng/mL
[1]; [14]
  Concentration in vitreous sample: 0.062 ng/mL

## CC(C)c1nc(NS(C)(=O)=O)nc(-c2ccc(F)cc2)c1/C=C/[C@@H](O)C[C@@H](O)CC(=O)O [N-desmethyl Rsv, n-desmethyl rosuvastatin]
[1]; patient 371, PDR, dose 0* (control without reported statin treatment)
  Concentration in vitreous sample: 0.019 ng/mL
[1]; [15]
  Concentration in vitreous sample: 0.013 ng/mL
[1]; [16]
  Concentration in vitreous sample: 0.026 ng/mL

## CC(C)c1nc(N(C)S(C)(=O)=O)nc(-c2ccc(F)cc2)c1/C=C/[C@@H]1C[C@@H](O)CC(=O)O1 [Rsv lactone, rosuvastatin lactone]
[1]; [15]
  Concentration in vitreous sample: 0.011 ng/mL
[1]; [16]
  Concentration in vitreous sample: 0.025 ng/mL

## CCC(C)(C)C(=O)O[C@H]1C[C@@H](C)C=C2C=C[C@H](C)[C@H](CC[C@@H](O)C[C@@H](O)CC(=O)O)[C@H]21 [Sim acid, simvastatin acid]
[1]; [17]
  Concentration in vitreous sample: 0.039 ng/mL
[1]; [18]
  Concentration in vitreous sample: 0.019 ng/mL
[1]; [19]
  Concentration in vitreous sample: 0.006 ng/mL

## CCC(C)(C)C(=O)O[C@H]1C[C@@H](C)C=C2C=C[C@H](C)[C@H](CC[C@@H]3C[C@@H](O)CC(=O)O3)[C@H]21 [Simvastatin]
[7]
  therapeutic Css, average in PVR rabbit model: 13.3 ng/mL
[1]; [20]
  Measured Cv Average: 0.048 ng/mL
  Measured Cv Range (lower): 0.027 ng/mL
  Measured Cv Range (upper): 0.073 ng/mL
[1]; [17]
  Concentration in vitreous sample: 0.073 ng/mL
[1]; [18]
  Concentration in vitreous sample: 0.044 ng/mL
[1]; patient A98, PDR, TDR, oral simvastatin 10 mg
  Concentration in vitreous sample: […]
[1]; [19]
  Concentration in vitreous sample: 0.027 ng/mL
[1]; two patients, one daily 10 mg, the other daily 20 mg
  Vitreal drug concentrations: […]
[8]
  fu: […]
[9]
  effect in preclinical PVR rabbit model: Clear beneficial effects
